{
  "source": "patent US20100239681A1",
  "about": "“Controlled Release Particulates Containing Water-Insoluble Drug” (Biokey, Inc., priority 2009, published 2010)",
  "origin": "cited, not measured here",
  "conditions": "at 25° C.",
  "data": [
    {"smiles": "Oc1ccc(C=Cc2cc(O)cc(O)c2)cc1", "note": "[resveratrol]", "values": [
      {"measurement": "water solubility", "result": "< 30", "unit": "µg/mL"}
    ]}
  ]
}
